In patent US10040781B2, “Tank-binding kinase inhibitor compounds” (Gilead Sciences, Inc., priority 2014, dated 2018):
Like-named read-outs stand apart in the source and are kept apart here.

What was measured:
[1] = target: IKKε (Homo sapiens (Human), UniProt Q14164); test: IKKε TR-FRET enzymatic assay; assay type: biochemical; conditions: read-out: IKKe IC50
[2] = target: hJAK2 (Homo sapiens (Human), UniProt O60674); test: hJAK2 LANCE TR-FRET enzymatic assay; assay type: biochemical; conditions: read-out: JAK2 IC50
[3] = target: TBK1 (Homo sapiens (Human), UniProt Q9UHD2); test: TBK1 TR-FRET enzymatic assay;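 also: phosphorylation of a biotinylated Ser/Thr peptide by purified full-length recombinant TBK1, read by TR-FRET after 240 min at 25 °C, IC50 is the geometric mean of at least four runs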
Chain of TBK1 (Q9UHD2 whole entry): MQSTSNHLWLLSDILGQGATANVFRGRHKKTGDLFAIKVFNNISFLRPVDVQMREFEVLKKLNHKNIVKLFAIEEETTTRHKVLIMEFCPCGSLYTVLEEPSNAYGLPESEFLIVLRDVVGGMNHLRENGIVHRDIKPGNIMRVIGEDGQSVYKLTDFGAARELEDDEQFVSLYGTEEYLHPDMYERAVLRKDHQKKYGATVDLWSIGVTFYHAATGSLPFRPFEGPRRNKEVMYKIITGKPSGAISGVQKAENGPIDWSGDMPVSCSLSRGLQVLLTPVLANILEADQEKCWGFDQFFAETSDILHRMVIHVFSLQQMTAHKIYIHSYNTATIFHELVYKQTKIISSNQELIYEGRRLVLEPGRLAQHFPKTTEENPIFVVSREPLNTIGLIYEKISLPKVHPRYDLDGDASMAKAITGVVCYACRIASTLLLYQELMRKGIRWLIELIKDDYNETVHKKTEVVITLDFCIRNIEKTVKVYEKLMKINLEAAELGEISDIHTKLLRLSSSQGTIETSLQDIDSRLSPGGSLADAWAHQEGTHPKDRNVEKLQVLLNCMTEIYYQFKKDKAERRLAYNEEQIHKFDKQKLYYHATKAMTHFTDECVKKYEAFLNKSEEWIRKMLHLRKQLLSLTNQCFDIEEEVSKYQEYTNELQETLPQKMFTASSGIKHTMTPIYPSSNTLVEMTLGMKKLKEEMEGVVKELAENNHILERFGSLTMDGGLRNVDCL

Chain of hJAK2 (O60674 whole entry): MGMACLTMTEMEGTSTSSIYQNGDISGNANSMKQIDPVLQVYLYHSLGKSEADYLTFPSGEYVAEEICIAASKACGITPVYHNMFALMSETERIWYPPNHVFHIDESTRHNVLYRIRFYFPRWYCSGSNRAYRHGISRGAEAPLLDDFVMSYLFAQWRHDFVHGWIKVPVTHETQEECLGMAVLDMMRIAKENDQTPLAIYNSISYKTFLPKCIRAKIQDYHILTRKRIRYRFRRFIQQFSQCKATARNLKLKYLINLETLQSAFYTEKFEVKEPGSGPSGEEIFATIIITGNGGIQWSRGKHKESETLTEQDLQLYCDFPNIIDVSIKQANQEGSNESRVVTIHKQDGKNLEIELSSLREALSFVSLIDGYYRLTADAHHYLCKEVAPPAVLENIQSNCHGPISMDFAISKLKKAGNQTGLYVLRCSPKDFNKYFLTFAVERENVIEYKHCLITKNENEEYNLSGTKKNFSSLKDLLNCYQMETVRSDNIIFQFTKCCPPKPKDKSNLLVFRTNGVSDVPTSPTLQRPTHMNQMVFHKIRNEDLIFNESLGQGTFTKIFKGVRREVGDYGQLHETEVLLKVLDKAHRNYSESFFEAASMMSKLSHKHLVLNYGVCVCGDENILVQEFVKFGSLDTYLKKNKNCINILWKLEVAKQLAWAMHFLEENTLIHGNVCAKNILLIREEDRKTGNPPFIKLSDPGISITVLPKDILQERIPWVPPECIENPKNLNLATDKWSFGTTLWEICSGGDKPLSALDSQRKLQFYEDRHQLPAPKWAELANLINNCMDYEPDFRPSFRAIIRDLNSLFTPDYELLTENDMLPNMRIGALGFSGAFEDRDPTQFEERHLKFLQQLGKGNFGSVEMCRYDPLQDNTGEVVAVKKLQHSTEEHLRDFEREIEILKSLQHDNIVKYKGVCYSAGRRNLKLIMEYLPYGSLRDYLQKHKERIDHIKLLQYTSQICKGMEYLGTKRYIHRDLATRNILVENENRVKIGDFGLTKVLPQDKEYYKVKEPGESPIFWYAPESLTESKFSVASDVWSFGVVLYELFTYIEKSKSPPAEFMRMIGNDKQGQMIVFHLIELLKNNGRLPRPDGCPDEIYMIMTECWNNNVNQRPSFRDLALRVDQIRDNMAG
Chain of IKKε (Q14164 whole entry): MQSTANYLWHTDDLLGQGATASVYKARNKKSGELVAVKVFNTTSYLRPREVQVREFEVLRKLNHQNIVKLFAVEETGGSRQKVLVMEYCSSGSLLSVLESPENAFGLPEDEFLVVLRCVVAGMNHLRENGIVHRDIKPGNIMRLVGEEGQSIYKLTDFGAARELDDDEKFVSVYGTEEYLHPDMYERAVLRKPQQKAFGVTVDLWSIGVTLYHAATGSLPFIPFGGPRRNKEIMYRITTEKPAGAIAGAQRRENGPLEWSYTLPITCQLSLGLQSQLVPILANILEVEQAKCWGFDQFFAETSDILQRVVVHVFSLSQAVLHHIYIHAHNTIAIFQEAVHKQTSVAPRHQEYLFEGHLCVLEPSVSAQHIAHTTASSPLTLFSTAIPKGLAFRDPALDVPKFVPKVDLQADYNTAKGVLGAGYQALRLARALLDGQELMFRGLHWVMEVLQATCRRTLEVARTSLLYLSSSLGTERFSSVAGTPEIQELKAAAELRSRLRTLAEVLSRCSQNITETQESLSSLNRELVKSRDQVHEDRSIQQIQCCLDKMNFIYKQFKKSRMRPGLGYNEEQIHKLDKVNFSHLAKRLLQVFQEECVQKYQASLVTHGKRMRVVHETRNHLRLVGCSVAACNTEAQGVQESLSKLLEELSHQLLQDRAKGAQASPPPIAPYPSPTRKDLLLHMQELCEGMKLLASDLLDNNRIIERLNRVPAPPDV

Row | IC50 [1] [nM] | IC50 [2] [nM] | IC50 [3] [nM] | Compound | IC50 ([3]; TBK1 IC50) [nM]
1 | 4 | 583 | 5 | N#Cc1cc(-c2ncnc(Nc3ccc(N4CCN(C5COC5)CC4)cc3)n2)ccc1OC1CCN(C(=O)c2ccc[nH]2)CC1(F)F (stereo not drawn) [Example 162, 2-((3,3-difluoro-1-(1H-pyrrole-2-carbonyl)piperidin-4-yl)oxy)-5-(4-((4-(4-(oxetan-3-yl)piperazin-1-yl)phenyl)amino)-1,3,5-triazin-2-yl)benzonitrile] | –
2 | 1 | 155 | 3 | N#Cc1cc(-c2ncnc(Nc3ccc(N4CCN(C5COC5)CC4)cc3)n2)ccc1O[C@H]1CCN(C(=O)c2ccn[nH]2)CC1(F)F [Example 164, (S)-2-((3,3-difluoro-1-(1H-pyrazole-5-carbonyl)piperidin-4-yl)oxy)-5-(4-((4-(4-(oxetan-3-yl)piperazin-1-yl)phenyl)amino)-1,3,5-triazin-2-yl)benzonitrile] | –
3 | 61 | 877 | 15 | C[C@@H]1C[C@@H](Oc2ccc(-c3ncnc(Nc4ccc(N5CCN(C6COC6)CC5)cc4)n3)cc2C#N)CCN1C(=O)CO [Example 168, 2-(((2R,4S)-1-(2-hydroxyacetyl)-2-methylpiperidin-4-yl)oxy)-5-(4-((4-(4-(oxetan-3-yl)piperazin-1-yl)phenyl)amino)-1,3,5-triazin-2-yl)benzonitrile] | –
4 | 5 | 230 | 2 | C[C@H]1C[C@@H](Oc2ccc(-c3ncnc(Nc4ccc(N5CCN(C6COC6)CC5)cc4)n3)cc2C#N)CCN1C(=O)CO [Example 169, 2-(((2S,4S)-1-(2-hydroxyacetyl)-2-methylpiperidin-4-yl)oxy)-5-(4-((4-(4-(oxetan-3-yl)piperazin-1-yl)phenyl)amino)-1,3,5-triazin-2-yl)benzonitrile] | –
5 | 8 | 255 | 3 | CC1CN(C(=O)CO)CCC1Oc1ccc(-c2ncnc(Nc3ccc(N4CCN(C5COC5)CC4)cc3)n2)cc1C#N (stereo not drawn) [Example 170, 2-((1-(2-hydroxyacetyl)-3-methylpiperidin-4-yl)oxy)-5-(4-((4-(4-(oxetan-3-yl)piperazin-1-yl)phenyl)amino)-1,3,5-triazin-2-yl)benzonitrile] | –
6 | 9 | 463 | 2 | CC1CC(Oc2ccc(-c3ncnc(Nc4ccc(N5CCN(C6COC6)CC5)cc4)n3)cc2C#N)CC(C)N1C(=O)CO (stereo not drawn) [Example 171, 2-((1-(2-hydroxyacetyl)-2,6-dimethylpiperidin-4-yl)oxy)-5-(4-((4-(4-(oxetan-3-yl)piperazin-1-yl)phenyl)amino)-1,3,5-triazin-2-yl)benzonitrile] | –
7 | 676 | ≥ 1000 | 72 | N#Cc1cc(-c2ncnc(Nc3ccc(N4CCN(C5COC5)CC4)cc3)n2)ccc1OC1C2CC1CN(C(=O)CO)C2 (stereo not drawn) [Example 172, 2-((3-(2-hydroxyacetyl)-3-azabicyclo[3.1.1]heptan-6-yl)oxy)-5-(4-((4-(4-(oxetan-3-yl)piperazin-1-yl)phenyl)amino)-1,3,5-triazin-2-yl)benzonitrile] | –
8 | 3 | 117 | 6 | CC1(C)CN(C(=O)CO)CC(F)C1Oc1ccc(-c2ncnc(Nc3ccc(N4CCN(C5COC5)CC4)cc3)n2)cc1C#N (stereo not drawn) [Example 177, 2-((5-fluoro-1-(2-hydroxyacetyl)-3,3-dimethylpiperidin-4-yl)oxy)-5-(4-((4-(4-(oxetan-3-yl)piperazin-1-yl)phenyl)amino)-1,3,5-triazin-2-yl)benzonitrile] | –
9 | 17 | 317 | 11 | C[C@H](O)C(=O)N1CC(F)C(Oc2ccc(-c3ncnc(Nc4ccc(N5CCN(C6COC6)CC5)cc4)n3)cc2C#N)C(C)(C)C1 (stereo partly drawn) [Example 180, 2-((5-fluoro-1-((S)-2-hydroxypropanoyl)-3,3-dimethylpiperidin-4-yl)oxy)-5-(4-((4-(4-(oxetan-3-yl)piperazin-1-yl)phenyl)amino)-1,3,5-triazin-2-yl)benzonitrile] | –
10 | 20 | 432 | 10 | C[C@H](O)C(=O)N1CC[C@H](Oc2ccc(-c3ncnc(Nc4ccc(N5CCN(C6COC6)CC5)cc4)n3)cc2C#N)C[C@@H]1C [Example 181, 2-(((2S,4S)-1-((S)-2-hydroxypropanoyl)-2-methylpiperidin-4-yl)oxy)-5-(4-((4-(4-(oxetan-3-yl)piperazin-1-yl)phenyl)amino)-1,3,5-triazin-2-yl)benzonitrile] | –
11 | 95 | 491 | 32 | C[C@@H](O)C(=O)N1CC[C@H](Oc2ccc(-c3ncnc(Nc4ccc(N5CCN(C6COC6)CC5)cc4)n3)cc2C#N)C[C@@H]1C [Example 182, 2-(((2S,4S)-1-((R)-2-hydroxypropanoyl)-2-methylpiperidin-4-yl)oxy)-5-(4-((4-(4-(oxetan-3-yl)piperazin-1-yl)phenyl)amino)-1,3,5-triazin-2-yl)benzonitrile] | –
12 | 120 | 593 | 50 | C[C@H](O)C(=O)N1CC[C@H](Oc2ccc(-c3ncnc(Nc4ccc(N5CCN(C6COC6)CC5)cc4)n3)cc2C#N)C[C@H]1C [Example 183, 2-(((2R,4S)-1-((S)-2-hydroxypropanoyl)-2-methylpiperidin-4-yl)oxy)-5-(4-((4-(4-(oxetan-3-yl)piperazin-1-yl)phenyl)amino)-1,3,5-triazin-2-yl)benzonitrile] | –
13 | 277 | ≥ 1000 | 103 | C[C@@H]1C[C@@H](Oc2ccc(-c3ncnc(Nc4ccc(N5CCN(C6COC6)CC5)cc4)n3)cc2C#N)CCN1C(=O)[C@@H](C)O [Example 184, 2-(((2R,4S)-1-((R)-2-hydroxypropanoyl)-2-methylpiperidin-4-yl)oxy)-5-(4-((4-(4-(oxetan-3-yl)piperazin-1-yl)phenyl)amino)-1,3,5-triazin-2-yl)benzonitrile] | –
14 | 190 | ≥ 1000 | 94 | C[C@H](O)C(=O)N1CC[C@@H](Oc2ccc(-c3ncnc(Nc4ccc(N5CCN(C6COC6)CC5)cc4)n3)cc2C#N)C[C@H]1C [Example 185, 2-(((2R,4R)-1-((S)-2-hydroxypropanoyl)-2-methylpiperidin-4-yl)oxy)-5-(4-((4-(4-(oxetan-3-yl)piperazin-1-yl)phenyl)amino)-1,3,5-triazin-2-yl)benzonitrile] | –
15 | 312 | ≥ 1000 | 128 | C[C@@H]1C[C@H](Oc2ccc(-c3ncnc(Nc4ccc(N5CCN(C6COC6)CC5)cc4)n3)cc2C#N)CCN1C(=O)[C@@H](C)O [Example 186, 2-(((2R,4R)-1-((R)-2-hydroxypropanoyl)-2-methylpiperidin-4-yl)oxy)-5-(4-((4-(4-(oxetan-3-yl)piperazin-1-yl)phenyl)amino)-1,3,5-triazin-2-yl)benzonitrile] | –
16 | 13 | 183 | 5 | C[C@H]1C[C@@H](Oc2ccc(-c3ncnc(Nc4ccc(N5CCN(C6COC6)CC5)cc4)n3)cc2C#N)CCN1C(=O)CC#N [Example 187, 2-(((2S,4S)-1-(2-cyanoacetyl)-2-methylpiperidin-4-yl)oxy)-5-(4-((4-(4-(oxetan-3-yl)piperazin-1-yl)phenyl)amino)-1,3,5-triazin-2-yl)benzonitrile] | –
17 | 5 | 224 | 5 | C[C@H]1C[C@@H](Oc2ccc(-c3ncnc(Nc4ccc(N5CCN(C6COC6)CC5)cc4)n3)cc2C#N)CCN1C(=O)c1cnn[nH]1 [Example 188, 2-(((2S,4S)-2-methyl-1-(1H-1,2,3-triazole-5-carbonyl)piperidin-4-yl)oxy)-5-(4-((4-(4-(oxetan-3-yl)piperazin-1-yl)phenyl)amino)-1,3,5-triazin-2-yl)benzonitrile] | –
18 | 15 | ≥ 1000 | 3 | N#Cc1cc(-c2ncnc(Nc3ccc(N4CCN(C5COC5)CC4)cc3)n2)ccc1OC1CCN(C(=O)c2ccc[nH]2)CC1 [Example 190, 2-((1-(1H-pyrrole-2-carbonyl)piperidin-4-yl)oxy)-5-(4-((4-(4-(oxetan-3-yl)piperazin-1-yl)phenyl)amino)-1,3,5-triazin-2-yl)benzonitrile] | –
19 | 226 | ≥ 1000 | 67 | N#Cc1cc(-c2ncnc(Nc3ccc(N4CCN(C5COC5)CC4)cc3)n2)ccc1OC1CCN(C(=O)c2cc[nH]c2)CC1 [Example 191, 2-((1-(1H-pyrrole-3-carbonyl)piperidin-4-yl)oxy)-5-(4-((4-(4-(oxetan-3-yl)piperazin-1-yl)phenyl)amino)-1,3,5-triazin-2-yl)benzonitrile] | –
20 | 30 | ≥ 1000 | 8 | C[C@H]1CN(C(=O)CO)C[C@@H]1Oc1ccc(-c2ncnc(Nc3ccc(N4CCN(C5COC5)CC4)cc3)n2)cc1C#N [Example 192, 2-(((3R,4S)-1-(2-hydroxyacetyl)-4-methylpyrrolidin-3-yl)oxy)-5-(4-((4-(4-(oxetan-3-yl)piperazin-1-yl)phenyl)amino)-1,3,5-triazin-2-yl)benzonitrile] | –

Row | Compound | IC50 [1] [nM] | IC50 [2] [nM] | IC50 [3] [nM] | IC50 ([3]; TBK1 IC50) [nM]
21 | N#Cc1cc(-c2ncnc(Nc3ccc(N4CCN(C5COC5)CC4)cc3)n2)ccc1O[C@H]1CCN(C(=O)c2cnc[nH]2)CC1(F)F [Example 167, (S)-2-((3,3-difluoro-1-(1H-imidazole-5-carbonyl)piperidin-4-yl)oxy)-5-(4-((4-(4-(oxetan-3-yl)piperazin-1-yl)phenyl)amino)-1,3,5-triazin-2-yl)benzonitrile] | 1 | 104 | 3 | –
22 | N#Cc1cc(-c2ncnc(Nc3ccc(N4CCN(C5COC5)CC4)cc3)n2)ccc1OC1CC2CCC(C1)N2C(=O)CO (stereo not drawn) [Example 173, 2-((8-(2-hydroxyacetyl)-8-azabicyclo[3.2.1]octan-3-yl)oxy)-5-(4-((4-(4-(oxetan-3-yl)piperazin-1-yl)phenyl)amino)-1,3,5-triazin-2-yl)benzonitrile] | 218 | 265 | – | 92
